Results: US8192962B2, “Processes for detecting toxic substances” (Daikin Industries, Ltd., priority 2001, dated 2012)

Tested on: Mitochondria-located protein genes
Experiment: DNA chip mRNA expression in yeast, mitochondria-located protein genes (Table 2)
Assay type: cell-based, Saccharomyces cerevisiae S288C
Settings: cells incubated two hours with the chemical substance
Summary of the method: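 Whole-genome yeast DNA chip hybridization (65° C., >12 h) of Cy-labeled cDNA from S288C cells exposed 2 h at 25° C. to a sub-lethal toxicant dose in YPD; value is intensity relative to chemical-free control.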

Na2As [(1)]
The level of expressed mRNA in the presence of chemical substance/The level of expressed mRNA in the absence of chemical substance (yeast gene YAL039C): 1.1 | The level of expressed mRNA in the presence of chemical substance/The level of expressed mRNA in the absence of chemical substance (yeast gene YBL022C): 0.4 | The level of expressed mRNA in the presence of chemical substance/The level of expressed mRNA in the absence of chemical substance (yeast gene YBL030C): 1.0 | The level of expressed mRNA in the presence of chemical substance/The level of expressed mRNA in the absence of chemical substance (yeast gene YBL038W): 1.0 | The level of expressed mRNA in the presence of chemical substance/The level of expressed mRNA in the absence of chemical substance (yeast gene YBL099W): 0.8 | The level of expressed mRNA in the presence of chemical substance/The level of expressed mRNA in the absence of chemical substance (yeast gene YBR003W): 0.9 | The level of expressed mRNA in the presence of chemical substance/The level of expressed mRNA in the absence of chemical substance (yeast gene YBR044C): 0.8 | The level of expressed mRNA in the presence of chemical substance/The level of expressed mRNA in the absence of chemical substance (yeast gene YBR091C): 1.1 | The level of expressed mRNA in the presence of chemical substance/The level of expressed mRNA in the absence of chemical substance (yeast gene YBR122C): 0.9 | The level of expressed mRNA in the presence of chemical substance/The level of expressed mRNA in the absence of chemical substance (yeast gene YBR185C): 1.2 | The level of expressed mRNA in the presence of chemical substance/The level of expressed mRNA in the absence of chemical substance (yeast gene YBR221C): 0.8 | The level of expressed mRNA in the presence of chemical substance/The level of expressed mRNA in the absence of chemical substance (yeast gene YBR251W): 1.0 | The level of expressed mRNA in the presence of chemical substance/The level of expressed mRNA in the absence of chemical substance (yeast gene YBR282W): 1.0 | The level of expressed mRNA in the presence of chemical substance/The level of expressed mRNA in the absence of chemical substance (yeast gene YCL057W): 0.6 | The level of expressed mRNA in the presence of chemical substance/The level of expressed mRNA in the absence of chemical substance (yeast gene YCR046C): 1.0 | The level of expressed mRNA in the presence of chemical substance/The level of expressed mRNA in the absence of chemical substance (yeast gene YCR083W): 1.1 | The level of expressed mRNA in the presence of chemical substance/The level of expressed mRNA in the absence of chemical substance (yeast gene YDL067C): 1.8 | The level of expressed mRNA in the presence of chemical substance/The level of expressed mRNA in the absence of chemical substance (yeast gene YDL181W): 1.3 | The level of expressed mRNA in the presence of chemical substance/The level of expressed mRNA in the absence of chemical substance (yeast gene YDL198C): 1.4 | The level of expressed mRNA in the presence of chemical substance/The level of expressed mRNA in the absence of chemical substance (yeast gene YDR079W): 1.3 | The level of expressed mRNA in the presence of chemical substance/The level of expressed mRNA in the absence of chemical substance (yeast gene YDR178W): 2.0 | The level of expressed mRNA in the presence of chemical substance/The level of expressed mRNA in the absence of chemical substance (yeast gene YDR231C): 1.1 | The level of expressed mRNA in the presence of chemical substance/The level of expressed mRNA in the absence of chemical substance (yeast gene YDR258C): 1.6 | The level of expressed mRNA in the presence of chemical substance/The level of expressed mRNA in the absence of chemical substance (yeast gene YDR298C): 1.3 | The level of expressed mRNA in the presence of chemical substance/The level of expressed mRNA in the absence of chemical substance (yeast gene YDR347W): 1.1 | The level of expressed mRNA in the presence of chemical substance/The level of expressed mRNA in the absence of chemical substance (yeast gene YDR377W): 1.3 | The level of expressed mRNA in the presence of chemical substance/The level of expressed mRNA in the absence of chemical substance (yeast gene YDR529C): 1.8 | The level of expressed mRNA in the presence of chemical substance/The level of expressed mRNA in the absence of chemical substance (yeast gene YEL024W): 1.3 | The level of expressed mRNA in the presence of chemical substance/The level of expressed mRNA in the absence of chemical substance (yeast gene YEL039C): 1.1 | The level of expressed mRNA in the presence of chemical substance/The level of expressed mRNA in the absence of chemical substance (yeast gene YER178W): 0.8 | The level of expressed mRNA in the presence of chemical substance/The level of expressed mRNA in the absence of chemical substance (yeast gene YFL016C): 0.8 | The level of expressed mRNA in the presence of chemical substance/The level of expressed mRNA in the absence of chemical substance (yeast gene YGL018C): 1.1 | The level of expressed mRNA in the presence of chemical substance/The level of expressed mRNA in the absence of chemical substance (yeast gene YGL187C): 1.5 | The level of expressed mRNA in the presence of chemical substance/The level of expressed mRNA in the absence of chemical substance (yeast gene YGL191W): 1.7 | The level of expressed mRNA in the presence of chemical substance/The level of expressed mRNA in the absence of chemical substance (yeast gene YGR008C): 2.1 | The level of expressed mRNA in the presence of chemical substance/The level of expressed mRNA in the absence of chemical substance (yeast gene YGR028W): 1.4 | The level of expressed mRNA in the presence of chemical substance/The level of expressed mRNA in the absence of chemical substance (yeast gene YGR062C): 0.9 | The level of expressed mRNA in the presence of chemical substance/The level of expressed mRNA in the absence of chemical substance (yeast gene YGR076C): 1.3 | The level of expressed mRNA in the presence of chemical substance/The level of expressed mRNA in the absence of chemical substance (yeast gene YGR082W): 1.0 | The level of expressed mRNA in the presence of chemical substance/The level of expressed mRNA in the absence of chemical substance (yeast gene YGR174C): 1.1 | The level of expressed mRNA in the presence of chemical substance/The level of expressed mRNA in the absence of chemical substance (yeast gene YGR244C): 1.0 | The level of expressed mRNA in the presence of chemical substance/The level of expressed mRNA in the absence of chemical substance (yeast gene YHR008C): 1.3 | The level of expressed mRNA in the presence of chemical substance/The level of expressed mRNA in the absence of chemical substance (yeast gene YIL155C): 1.0 | The level of expressed mRNA in the presence of chemical substance/The level of expressed mRNA in the absence of chemical substance (yeast gene YJL096W): 1.0 | The level of expressed mRNA in the presence of chemical substance/The level of expressed mRNA in the absence of chemical substance (yeast gene YJL102W): 1.1 | The level of expressed mRNA in the presence of chemical substance/The level of expressed mRNA in the absence of chemical substance (yeast gene YJL133W): 1.0 | The level of expressed mRNA in the presence of chemical substance/The level of expressed mRNA in the absence of chemical substance (yeast gene YJL166W): 2.1 | The level of expressed mRNA in the presence of chemical substance/The level of expressed mRNA in the absence of chemical substance (yeast gene YJL180C): 0.9 | The level of expressed mRNA in the presence of chemical substance/The level of expressed mRNA in the absence of chemical substance (yeast gene YJR045C): 0.5 | The level of expressed mRNA in the presence of chemical substance/The level of expressed mRNA in the absence of chemical substance (yeast gene YJR077C): 1.1
